The source of these data is US8476194B2.

Each structure is given as a SMILES string.

Common to all, as to format: cell-based
Assay [1] relates to Leptosphaeria nodorum (LEPTNO). In words: In vitro fungitoxicity assay against Leptosphaeria nodorum (LEPTNO) in copper-minus and copper-plus medium. The conditions noted are these: CuCl2 10 μM, no test compound, across experiments.
The test system of a further assay is Phytophthora capsici. Description: In vitro fungitoxicity assay against Phytophthora capsici in copper-minus AS and copper-plus AS medium.
For the next assay, the system named is Ustilago maydis. Description: In vitro fungitoxicity assay against Ustilago maydis in copper-minus and copper-plus medium. The conditions noted are these: 1 μg/mL, calculated with Colby formula.

For the compound `[Cl][Cu][Cl]` [CuCl2, copper chloride], the “LEPTNO % Inhn. attributed to copper chloride alone” value in assay [1] came to 7.1 ± 6.0%. Besides, in the assay with Phytophthora capsici (CuCl2 50 uM, no test compound, across experiments), the “% Inhn attributed to copper chloride alone” value is given as 4.5 ± 7.9%.
In the case of `C/C(=N\NC(=O)c1ccc(Cl)cc1)c1cc(F)cc(F)c1O` [Compound 96], the “% Inhn. Plus copper Predicted” value in the assay with Ustilago maydis is 53.6%. Moreover, the “% Inhn Plus copper Predicted” value in the assay with Phytophthora capsici (0.050 μg/mL, calculated with Colby formula) is reported as 7.2%.
